The record followed here is patent US8975398B2, “NAMPT inhibitors” (AbbVie Inc., priority 2012, dated 2015).

In assay [1] the target is NAMPT (human, recombinant, C-terminally His-tagged) (Homo sapiens, UniProt P43490). The experiment in a line: Time-Resolved Fluorescence Resonance Energy Transfer (TR-FRET) Binding Assay of NAMPT. The following applies: 6.8 nM NAMPT, 200 nM probe, equilibrated 3 hours, absence of substrates. In a few lines:
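Probe displacement measured by TR-FRET (Ex 337 nm; 520/495 nm ratio) after 3 h room-temperature equilibration of compound with 6.8 nM His-tagged human NAMPT, 1 nM Tb-anti-His antibody and 200 nM Oregon Green 488 nicotinamide-site probe, pH 7.5 HEPES buffer, 2% DMSO. Control-normalized data fit four-parameter logistic for IC50.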

The target in the next assay is NAMPT (Homo sapiens, UniProt P43490). Description: Time-Resolved Fluorescence Resonance Energy Transfer (TR-FRET) Binding Assay of NAMPT with PRPP. The following applies: 2 nM NAMPT, 2 nM probe, 200 uM PRPP and 2.5 mM ATP, equilibrated 16 hours. The procedure, abridged: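 Binding measured by TR-FRET after a 16-hour equilibration meant to permit enzymatic compound modification. Substrates present at 200 uM PRPP and 2.5 mM ATP, with 2 nM enzyme, 2 nM probe, 1 nM Tb-anti-His antibody and 2% DMSO final.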
Chain of NAMPT (P43490 whole entry): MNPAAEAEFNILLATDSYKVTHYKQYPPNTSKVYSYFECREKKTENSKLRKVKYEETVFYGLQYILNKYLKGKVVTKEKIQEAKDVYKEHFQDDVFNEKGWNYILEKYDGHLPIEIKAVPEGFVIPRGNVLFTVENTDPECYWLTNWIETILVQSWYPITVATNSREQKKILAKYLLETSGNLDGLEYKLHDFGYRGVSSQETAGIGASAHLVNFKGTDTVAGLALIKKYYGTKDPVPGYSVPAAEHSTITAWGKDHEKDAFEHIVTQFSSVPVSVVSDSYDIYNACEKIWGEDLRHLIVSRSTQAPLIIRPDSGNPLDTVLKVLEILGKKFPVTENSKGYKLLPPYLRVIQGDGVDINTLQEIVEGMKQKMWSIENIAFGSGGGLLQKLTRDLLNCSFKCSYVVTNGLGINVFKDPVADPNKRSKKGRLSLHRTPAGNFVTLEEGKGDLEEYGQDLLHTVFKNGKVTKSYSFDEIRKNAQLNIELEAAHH

pIC50: −log10 of the molar value.

Chain of NAMPT (human, recombinant, C-terminally His-tagged) (P43490 whole entry): as above

In the case of `O=C(Nc1ccc(C2CCN(C(=O)CC3CCCCC3)CC2)cc1)C1CN(c2cccnn2)C1` [Example 340, N-{4-[1-(cyclohexylacetyl)piperidin-4-yl]phenyl}-1-(pyridazin-3-yl)azetidine-3-carboxamide], the pIC50 in assay [1] is 7.75; at NAMPT, 9.14.
Turning to `Cc1cccc(C(=O)N2CCC(c3ccc(NC(=O)C4CN(c5cccnn5)C4)cc3)CC2)c1` [Example 341, N-{4-[1-(3-methylbenzoyl)piperidin-4-yl]phenyl}-1-(pyridazin-3-yl)azetidine-3-carboxamide], the pIC50 is 7.45 in assay [1] and 9.14 on NAMPT.
With `O=C(Nc1ccc(C2CCN(C(=O)c3ccccc3O)CC2)cc1)C1CN(c2cccnn2)C1` [Example 342, N-{4-[1-(2-hydroxybenzoyl)piperidin-4-yl]phenyl}-1-(pyridazin-3-yl)azetidine-3-carboxamide], the pIC50 in assay [1] was 7.88; at NAMPT, 9.16.
As to `O=C(Nc1ccc(C2CCN(C(=O)c3cccc(O)c3)CC2)cc1)C1CN(c2cccnn2)C1` [Example 343, N-{4-[1-(3-hydroxybenzoyl)piperidin-4-yl]phenyl}-1-(pyridazin-3-yl)azetidine-3-carboxamide], the values for the pIC50 (in assay [1]; at NAMPT) were 8.21 and 9.14, respectively.
With `O=C(Nc1ccc(C2CCN(C(=O)c3ccc(O)cc3)CC2)cc1)C1CN(c2cccnn2)C1` [Example 344, N-{4-[1-(4-hydroxybenzoyl)piperidin-4-yl]phenyl}-1-(pyridazin-3-yl)azetidine-3-carboxamide], the pIC50 is 7.42 in assay [1] and 9.24 at NAMPT.
Take `COc1ccccc1C(=O)N1CCC(c2ccc(NC(=O)C3CN(c4cccnn4)C3)cc2)CC1` [Example 345, N-{4-[1-(2-methoxybenzoyl)piperidin-4-yl]phenyl}-1-(pyridazin-3-yl)azetidine-3-carboxamide]: the results for the pIC50 (in assay [1]; at NAMPT) were 8.02 and 9.41, respectively.
In the same order, the values of `COc1cccc(C(=O)N2CCC(c3ccc(NC(=O)C4CN(c5cccnn5)C4)cc3)CC2)c1` [Example 346, N-{4-[1-(3-methoxybenzoyl)piperidin-4-yl]phenyl}-1-(pyridazin-3-yl)azetidine-3-carboxamide] are 7.51 and 9.34.
For `COc1ccc(C(=O)N2CCC(c3ccc(NC(=O)C4CN(c5cccnn5)C4)cc3)CC2)cc1` [Example 347, N-{4-[1-(4-methoxybenzoyl)piperidin-4-yl]phenyl}-1-(pyridazin-3-yl)azetidine-3-carboxamide], the pIC50 in assay [1] is 7.18; on NAMPT, 9.03.
Regarding `O=C(Nc1ccc(C2CCN(C(=O)c3cccc(F)c3)CC2)cc1)C1CN(c2cccnn2)C1` [Example 348, N-{4-[1-(3-fluorobenzoyl)piperidin-4-yl]phenyl}-1-(pyridazin-3-yl)azetidine-3-carboxamide], the pIC50 in assay [1] was 7.82; at NAMPT, 9.20.
As for `O=C(Nc1ccc(C2CCN(C(=O)c3ccc(F)cc3)CC2)cc1)C1CN(c2cccnn2)C1` [Example 349, N-{4-[1-(4-fluorobenzoyl)piperidin-4-yl]phenyl}-1-(pyridazin-3-yl)azetidine-3-carboxamide], the pIC50 is 7.23 in assay [1] and 9.13 at NAMPT.
For the molecule `O=C(Nc1ccc(C2CCN(C(=O)c3ccccc3Cl)CC2)cc1)C1CN(c2cccnn2)C1` [Example 350, N-{4-[1-(2-chlorobenzoyl)piperidin-4-yl]phenyl}-1-(pyridazin-3-yl)azetidine-3-carboxamide], the values for the pIC50 (in assay [1]; on NAMPT) were 8.34 and 9.19, respectively.
As for `O=C(Nc1ccc(C2CCN(C(=O)c3cccc(Cl)c3)CC2)cc1)C1CN(c2cccnn2)C1` [Example 351, N-{4-[1-(3-chlorobenzoyl)piperidin-4-yl]phenyl}-1-(pyridazin-3-yl)azetidine-3-carboxamide], the pIC50 is 7.43 in assay [1] and 9.12 at NAMPT.
For `N#Cc1cccc(C(=O)N2CCC(c3ccc(NC(=O)C4CN(c5cccnn5)C4)cc3)CC2)c1` [Example 352, N-{4-[1-(3-cyanobenzoyl)piperidin-4-yl]phenyl}-1-(pyridazin-3-yl)azetidine-3-carboxamide], the pIC50 in assay [1] was 7.02; on NAMPT, 9.21.
For `N#Cc1ccc(C(=O)N2CCC(c3ccc(NC(=O)C4CN(c5cccnn5)C4)cc3)CC2)cc1` [Example 353, N-{4-[1-(4-cyanobenzoyl)piperidin-4-yl]phenyl}-1-(pyridazin-3-yl)azetidine-3-carboxamide], the values for the pIC50 (in assay [1]; on NAMPT) were 7.05 and 9.33, respectively.
Regarding `O=C(Nc1ccc(C2CCN(C(=O)c3cccc(C(F)(F)F)c3)CC2)cc1)C1CN(c2cccnn2)C1` [Example 354, 1-(pyridazin-3-yl)-N-(4-{1-[3-(trifluoromethyl)benzoyl]piperidin-4-yl}phenyl)azetidine-3-carboxamide], the pIC50 in assay [1] was 7.08; on NAMPT, 9.08.
Turning to `O=C(Nc1ccc(C2CCN(C(=O)c3ccc(C(F)(F)F)cc3)CC2)cc1)C1CN(c2cccnn2)C1` [Example 355, 1-(pyridazin-3-yl)-N-(4-{1-[4-(trifluoromethyl)benzoyl]piperidin-4-yl}phenyl)azetidine-3-carboxamide], the pIC50 in assay [1] is 6.94; on NAMPT, 9.01.
Consider `O=C(Nc1ccc(C2CCN(C(=O)c3cccc(OC(F)(F)F)c3)CC2)cc1)C1CN(c2cccnn2)C1` [Example 356, 1-(pyridazin-3-yl)-N-(4-{1-[3-(trifluoromethoxy)benzoyl]piperidin-4-yl}phenyl)azetidine-3-carboxamide], for which the pIC50 is 7.17 in assay [1] and 9.06 at NAMPT.
In the same order, the values of `Cc1cccc(C(=O)N2CCC(c3ccc(NC(=O)C4CN(c5cccnn5)C4)cc3)CC2)c1C` [Example 357, N-{4-[1-(2,3-dimethylbenzoyl)piperidin-4-yl]phenyl}-1-(pyridazin-3-yl)azetidine-3-carboxamide] are 7.75 and 8.94.
With `Cc1ccc(C(=O)N2CCC(c3ccc(NC(=O)C4CN(c5cccnn5)C4)cc3)CC2)c(C)c1` [Example 358, N-{4-[1-(2,4-dimethylbenzoyl)piperidin-4-yl]phenyl}-1-(pyridazin-3-yl)azetidine-3-carboxamide], the pIC50 is 7.80 in assay [1] and 9.09 on NAMPT.
For `Cc1ccc(C)c(C(=O)N2CCC(c3ccc(NC(=O)C4CN(c5cccnn5)C4)cc3)CC2)c1` [Example 359, N-{4-[1-(2,5-dimethylbenzoyl)piperidin-4-yl]phenyl}-1-(pyridazin-3-yl)azetidine-3-carboxamide] the same measures were 7.67 and 9.06.
Regarding `Cc1ccc(C(=O)N2CCC(c3ccc(NC(=O)C4CN(c5cccnn5)C4)cc3)CC2)cc1C` [Example 360, N-{4-[1-(3,4-dimethylbenzoyl)piperidin-4-yl]phenyl}-1-(pyridazin-3-yl)azetidine-3-carboxamide], the pIC50 was 7.66 in assay [1] and 9.11 on NAMPT.
For `Cc1cc(C)cc(C(=O)N2CCC(c3ccc(NC(=O)C4CN(c5cccnn5)C4)cc3)CC2)c1` [Example 361, N-{4-[1-(3,5-dimethylbenzoyl)piperidin-4-yl]phenyl}-1-(pyridazin-3-yl)azetidine-3-carboxamide] the same measures were 7.43 and 9.01.
